Assay results reported in patent publication US20140364460A1, “USE OF FATOSTATIN FOR TREATING CANCER HAVING A p53 MUTATION” (THE TRUSTEES OF COLUMBIA UNIVERSITY IN THE CITY OF NEW YORK, priority 2012, published 2014).

Assays:
[1] = mice, after administration of 23 mg/kg; cited from earlier work
SKBR3 cells = test: Three-dimensional culture of SKBR3 cells; type: cell-based; details: 3D culture 8 days, fatostatin 2 or 20 μM added Day 1
Protocol: (§1) FIG. 3. Fatostatin inhibits SKBR3 cell growth in 3D Culture. SKBR3 cells were grown in 3D cultures for 8 days treated with (A) DMSO, (B) Fatostatin 2 μM or (C) Fatostatin 20 μM. Drugs were added on Day 1. Representative Differential Interference Contrast (DIC) images are shown. Scale bar, 200 μm.
(§2) Three-dimensional culture was carried out as described in Debnath et al., 2003. Briefly, 8-well chamber slides were lined with 50 μl growth factor reduced Matrigel (BD Biosciences). Cells were then seeded at a density of 5,000 cells/well in Assay Medium (DMEM/F12+2% Horse Serum+10 μg/ml Insulin+0.5 μg/ml Hydrocortisone) containing 2% Matrigel. Cells were refed with Assay Medium containing 2% Matrigel every 4 days. For RNA/protein analysis from 3D cultures, 35 mm plates were lined with 500 μl Matrigel and cells were seeded at a density of 225,000 cells/plate in Assay Medium+2% Matrigel. Cells were harvested using Cell Recovery Solution (BD Biosciences) according to the manufacturer's instructions.
SKBR3 cells were grown in 3D cultures for 8 days treated with DMSO, Fatostatin (2 μM) or (20 μM). Drugs were added on Day 1.

MDA-468 cells = test: Three-dimensional culture of MDA-468.shp53 cells; type: cell-based; details: 3D culture 10 days, fatostatin 2 or 20 μM added Day 1
Protocol: as §1, with “FIG. 4.” for “FIG. 3.”, “inhibits MDA-468” for “inhibits SKBR3”, “Culture. MDA-468.shp53” for “Culture. SKBR3”, “for 10” for “for 8”
as §2
MDA-468.shp53 cells were grown in 3D cultures for 10 days treated with DMSO, Fatostatin (2 μM) or (20 μM). Drugs were added on Day 1.

[2] = test system: mutant p53 binding to the HMG-CoA reductase gene promoter; test: Quantitative ChIP of mutant p53 in fatostatin-treated MDA-468.shp53 cells; type: cell-based; details: fatostatin 20 μM, six independent experiments, p<0.01
Protocol: FIG. 1. MDA-468.shp53 cells were treated with fatostatin (20 μM) and subjected to ChIP analysis. Data are presented as mean+−SD of six independent experiments. **p<0.01
Chromatin Immunoprecipitation (ChIP) experiments were carried out as described in Beckerman et al., 2009. Briefly, MDA-468 cells were treated with 1% formaldehyde prior to lysis in RIPA Buffer and sonication to yield 500 bp fragments. Protein A/G Sepharose beads were conjugated to anti-p53 antibodies (1801/D0-1) which were subsequently used to immunoprecipitate p53 from 1 mg whole cell lysate. Quantitative ChIP was carried out on an ABI StepOne Plus using SYBR green dye. Genomic Locations of SRE-1 sites within the promoters of sterol biosynthesis genes were located using a literature search: HMGCS 1 (Inoue et al., 1998), HMGCR (Boone et al., 2009), MVK (Bishop et al., 1998), FDPS (Ishimoto et al., 2010), FDFT1 (Inoue et al., 1998), SQLE (Nagai et al., 2002) and CYP51A1 (Halder et al., 2002), respectively. ChIP primer sequences are provided in Table 2 of PCT/US 11/55488 and are incorporated by reference.
MDA-468.shp53 cells were treated with Fatostatin (20 μM) and subjected to ChIP analysis. FIG. 1. Cells in 3D culture were treated on Day 1 or Day 4 of the 3D protocol and refed every 4 days with fresh drug. Data are presented as mean+−SD of six independent experiments. **p<0.01.

MDA-231 cells = test: Three-dimensional culture of MDA-231.shp53 cells; type: cell-based; details: 3D culture 8 days, fatostatin 2 or 20 μM added day 1
Protocol: FIG. 2. MDA-231.shp53 cells were grown in 3D cultures for 8 days and treated with (A) DMSO, (B) Fatostatin 2 μM or (C) Fatostatin 20 μM. Drugs were added on day 1. Representative DIC images are shown. Scale bar, 200 μm.
as §2
MDA-231.shp53 cells were grown in 3D cultures for 8 days and treated with DMSO and fatostatin (2 or 20 μM). Drugs were added on day 1. Representative DIC images are shown. FIG. 2. Scale bar, […].

Structure (SMILES)	oral availability [1]	cell growth in 3D culture (SKBR3 cells)	normalizing the abnormal 3D morphology (SKBR3 cells)	cell growth in 3D culture (MDA-468 cells)	normalizing the abnormal 3D morphology (MDA-468 cells)	level of mutant p53 binding to the HMG-CoA reductase gene promoter [2]	cell growth in 3D culture (MDA-231 cells)	normalizing the abnormal 3D morphology (MDA-231 cells)
CCCc1cc(-c2nc(-c3ccc(NS(C)(=O)=O)cc3)cs2)ccn1 [N-(4-(2-(2-Propylpyridin-4-yl)thiazol-4-yl)phenyl)methanesulfonamide]	demonstrated	–	–	–	–	–	–	–
CCCc1cc(-c2nc(-c3ccc(C)cc3)cs2)ccn1 [fatostatin, 2-Propyl-4-(4-(p-tolyl)thiazol-2-yl) pyridine]	–	inhibited	dramatic effect on normalizing the abnormal 3D morphology	inhibited	dramatic effect on normalizing the abnormal 3D morphology	significantly reduced	inhibited	dramatic effect on normalizing the abnormal 3D morphology
